# Results taken from patent US20060035846A1, “Preventing/correcting functional disorders of the pilosebaceous unit of mammals” (L'OREAL, priority 2002, published 2006).
# Test system: costo-vertebral organ (CVO) of the hamster
# Assay: CVO test: inhibition of the "testosterone effect" by food supplements
# Format: in vivo
# Conditions: daily topical application of testosterone to the right CVO from day 50; control animals without food supplement; FIG. 1
# From the text: 1-A: Principle of the CVO Test:
# The CVO of the hamster is a cutaneous region rich in pilosebaceous units.
# The CVO test consists of determining the anti-androgenic action of different compounds on the CVO, i.e., of determining whether said compounds prevent the action of testosterone (Liao S et al., Arch Dermatol Res, 293(4), 200-206 (2001)).
# Consequently, this figure illustrates the “testosterone effect”.
# As from the fiftieth day (dotted arrow), testosterone was applied daily to the right CVO.
# The following products were used in the context of the in vivo CVO test such as defined above. These products were tested as food supplements, alone or in combination. • (a) the natural aroma of red wine rich in resveratrol (stilbenes) and proanthocyanidines (flavonoids) in the proportion of 0.11 g in 43 g of food (18% of polyphenols); • (b) a soja extract containing 40% of isoflavonoids, in a proportion of 0.02 g of extract in 44 g of food (40% of isoflavones); • (c) black currant pip oil rich in γ-linolenic acid (polyunsaturated fatty acid 18:3 n-6) in a proportion of 10% by weight in the foodstuff; • (d) the combination of the above three products.
compound,measurement,value
C[C@]12CC[C@H]3[C@@H](CCC4=CC(=O)CC[C@@]43C)[C@@H]1CC[C@@H]2O [testosterone],"size of the right CVO compared with that of the left CVO (""testosterone effect"")",increase in the size
